This is an account of results in patent US12281121B2, “N-containing heteroaryl derivative and pharmaceutical composition comprising same as active ingredient for prevention or treatment of cancer” (VORONOI Inc., priority 2019, dated 2025).

The term IC50 denotes the concentration needed to halve the response being measured. Read a low IC50 as inhibition by little substance.

In one experiment the target is RET (V804M) (Homo sapiens, UniProt P07949, V804M). In words: RET enzyme inhibitory ability, ADP-Glo kinase assay. In kind it is biochemical. The settings on record: ATP 10 μM, 25° C., 1 hour. In a few lines:
(§1)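 Purified human RET (658-end, 0.8 ng) was reacted with 10 μM ATP and substrate 1 h at 25°C in 40 mM Tris-HCl pH 7.4, 20 mM MgCl2, 0.5 mg/mL BSA, 50 μM DTT. ADP-Glo luminescence was normalised to solvent control; IC50 (nM) from 3 datasets.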
On the technique in general: ADP-Glo turns the ADP formed in a reaction into a luminescent signal.

In another experiment the target is T1, CCDC6-RET (Homo sapiens, UniProt P07949).
T1 construct: the other entry of the earlier key: CCDC6 (Q16204, Coiled-coil domain-containing protein 6)
The description is as above. It counts as biochemical. The settings on record: ATP 10 μM, 25° C., 1 hour. In a few lines: as §1

The next experiment has as its target T2, RET (WT) (Homo sapiens, UniProt P07949).
T2 construct: human RET (658-end, SIGNALCHEM); purchased SIGNALCHEM
T2 sequence (P07949 658-1114 limits assumed): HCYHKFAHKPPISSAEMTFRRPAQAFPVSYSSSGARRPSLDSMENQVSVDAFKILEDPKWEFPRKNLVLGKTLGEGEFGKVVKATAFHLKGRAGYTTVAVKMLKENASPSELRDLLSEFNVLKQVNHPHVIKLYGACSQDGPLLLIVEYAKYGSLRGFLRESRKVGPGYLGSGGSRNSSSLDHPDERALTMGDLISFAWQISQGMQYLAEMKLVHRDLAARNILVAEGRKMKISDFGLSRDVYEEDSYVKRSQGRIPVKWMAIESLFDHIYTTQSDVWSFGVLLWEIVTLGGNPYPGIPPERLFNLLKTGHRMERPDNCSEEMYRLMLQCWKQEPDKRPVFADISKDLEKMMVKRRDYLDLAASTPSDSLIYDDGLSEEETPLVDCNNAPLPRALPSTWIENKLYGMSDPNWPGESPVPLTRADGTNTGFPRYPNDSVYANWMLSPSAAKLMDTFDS
The experiment is described as above. The settings on record: ATP 10 μM, 25° C., 1 hour. It counts as biochemical. In a few lines:
as §1

For another experiment, the target named is T3, EGFR(T790M) (Homo sapiens, UniProt P00533, T790M).
T3 construct: purchased DiscoverX ScanMAX Kinase analysis panel
T3 sequence (P00533 25-1210 T790M): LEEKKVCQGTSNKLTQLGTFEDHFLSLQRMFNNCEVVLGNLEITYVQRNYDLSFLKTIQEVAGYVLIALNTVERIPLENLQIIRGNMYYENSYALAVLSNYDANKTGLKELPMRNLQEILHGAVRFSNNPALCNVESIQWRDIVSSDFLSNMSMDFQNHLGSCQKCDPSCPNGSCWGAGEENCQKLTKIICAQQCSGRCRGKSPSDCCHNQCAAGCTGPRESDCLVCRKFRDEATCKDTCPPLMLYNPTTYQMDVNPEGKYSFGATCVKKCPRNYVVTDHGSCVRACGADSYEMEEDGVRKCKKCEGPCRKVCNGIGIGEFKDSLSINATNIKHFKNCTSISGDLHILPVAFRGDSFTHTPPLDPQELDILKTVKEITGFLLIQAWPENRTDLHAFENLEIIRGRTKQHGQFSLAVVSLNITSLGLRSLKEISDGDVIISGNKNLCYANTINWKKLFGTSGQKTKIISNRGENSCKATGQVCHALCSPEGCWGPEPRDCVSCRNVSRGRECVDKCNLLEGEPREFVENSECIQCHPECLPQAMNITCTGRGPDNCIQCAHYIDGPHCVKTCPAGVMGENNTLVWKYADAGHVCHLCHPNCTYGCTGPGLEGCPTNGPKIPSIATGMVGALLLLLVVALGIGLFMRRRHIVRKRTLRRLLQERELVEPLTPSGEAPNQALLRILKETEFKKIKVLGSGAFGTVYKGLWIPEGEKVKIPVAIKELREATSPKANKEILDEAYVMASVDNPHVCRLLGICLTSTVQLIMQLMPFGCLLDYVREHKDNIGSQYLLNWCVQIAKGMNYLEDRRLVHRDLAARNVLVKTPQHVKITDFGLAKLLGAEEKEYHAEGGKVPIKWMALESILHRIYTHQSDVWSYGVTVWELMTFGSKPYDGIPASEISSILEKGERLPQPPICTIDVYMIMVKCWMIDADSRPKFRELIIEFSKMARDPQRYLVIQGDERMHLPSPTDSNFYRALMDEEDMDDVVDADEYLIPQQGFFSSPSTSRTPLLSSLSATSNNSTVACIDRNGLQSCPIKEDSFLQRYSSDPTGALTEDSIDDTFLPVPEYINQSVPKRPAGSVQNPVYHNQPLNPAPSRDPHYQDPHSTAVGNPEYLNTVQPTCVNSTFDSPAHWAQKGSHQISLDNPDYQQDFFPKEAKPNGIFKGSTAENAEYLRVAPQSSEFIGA
As to the kind of experiment: ScanMAX Kinase analysis panel (DiscoverX). It counts as binding. The settings on record: read-out: adjusted percentage (% control). The method, then:
(§2) The following experiment was performed in order to evaluate the inhibitory activity of the compound according to the present invention against more enzymes. Specifically, for Examples 1 and 3 selected among the Example compounds of the present invention, the enzyme (kinase) selectivity was set to be measured by commissioning DiscoverX, and an experiment was conducted using a ScanMAX™ Kinase analysis panel. In this case, the concentration of the drug treated with the enzyme was set to 1 μM in DMSO, the adjusted percentage (% control) was determined in the same manner as in the following Equation 1, and the results are shown in the following Table 3. (Example compound−Positive control)/(Negative control−Positive control)×100 [Equation 1]
(§3) In addition, the enzyme selectivity of the present invention was determined to be active against the corresponding enzyme when the adjusted percentage was <35% (that is, less than 35%).

A further experiment concerns the target T4, KIT(D816V) (Homo sapiens, UniProt P10721, D816V).
T4 construct: purchased DiscoverX ScanMAX Kinase analysis panel
In words: ScanMAX Kinase analysis panel (DiscoverX). In kind it is binding. The settings on record: read-out: adjusted percentage (% control). The method, then:
as §2, §3

A further experiment deals with FLT3(ITD, F691L). In words: ScanMAX Kinase analysis panel (DiscoverX). In kind it is binding. The following applies: 1 μM. The method, then: as §2, §3
In the next experiment the target is T5, SRC (Homo sapiens, UniProt P12931).
T5 construct: purchased DiscoverX ScanMAX Kinase analysis panel
T5 sequence (P12931 whole entry): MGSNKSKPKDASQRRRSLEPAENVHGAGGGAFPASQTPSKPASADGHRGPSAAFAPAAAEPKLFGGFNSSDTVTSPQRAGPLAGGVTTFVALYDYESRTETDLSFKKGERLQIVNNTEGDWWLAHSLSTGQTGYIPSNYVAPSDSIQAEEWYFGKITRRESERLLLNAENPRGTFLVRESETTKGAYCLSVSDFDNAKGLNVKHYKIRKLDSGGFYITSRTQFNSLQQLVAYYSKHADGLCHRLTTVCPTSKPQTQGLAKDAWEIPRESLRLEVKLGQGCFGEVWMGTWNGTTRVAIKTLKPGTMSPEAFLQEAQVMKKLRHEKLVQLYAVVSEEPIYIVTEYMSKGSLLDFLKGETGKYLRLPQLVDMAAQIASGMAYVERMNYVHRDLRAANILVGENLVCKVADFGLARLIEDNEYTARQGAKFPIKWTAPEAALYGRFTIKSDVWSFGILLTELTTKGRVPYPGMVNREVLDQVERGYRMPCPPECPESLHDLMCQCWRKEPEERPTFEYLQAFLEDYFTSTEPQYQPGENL
As to the kind of experiment: ScanMAX Kinase analysis panel (DiscoverX). The following applies: read-out: adjusted percentage (% control). It counts as binding. The method, then:
as §2, §3

Experiment [1] deals with T6, EGFR(L747-E749del, A750P) (Homo sapiens, UniProt P00533, A750P/DEL747-749).
T6 construct: purchased DiscoverX
As to the kind of experiment: ScanMAX Kinase analysis panel (DiscoverX). It counts as binding. The settings on record: read-out: adjusted percentage (% control). As to the method:
as §2, §3

Another experiment has as its target T7, ICK (Homo sapiens, UniProt Q9UPZ9).
T7 construct: purchased DiscoverX ScanMAX Kinase analysis panel
As to the kind of experiment: ScanMAX Kinase analysis panel (DiscoverX). In kind it is binding. The settings on record: read-out: adjusted percentage (% control). The method, then: as §2, §3

A further experiment has as its target T8, CSNK2A1 (Homo sapiens, UniProt P68400).
T8 construct: purchased DiscoverX
As to the kind of experiment: ScanMAX Kinase analysis panel (DiscoverX). It counts as binding. The settings on record: read-out: adjusted percentage (% control). The method, then: as §2, §3

Another experiment concerns the target T9, SYK (Homo sapiens, UniProt P43405).
T9 construct: purchased DiscoverX ScanMAX Kinase analysis panel
As to the kind of experiment: ScanMAX Kinase analysis panel (DiscoverX). In kind it is binding. The following applies: read-out: adjusted percentage (% control). As to the method:
as §2, §3

A further experiment has as its target T10, RET (Homo sapiens, UniProt P07949).
T10 construct: purchased DiscoverX ScanMAX Kinase analysis panel
In words: ScanMAX Kinase analysis panel (DiscoverX). It counts as binding. The following applies: read-out: adjusted percentage (% control). As to the method: as §2, §3

The target in experiment [2] is T11, ABL1(Q252H)-phosphorylated (Homo sapiens, UniProt P00519, Q252H).
T11 construct: purchased DiscoverX
In words: ScanMAX Kinase analysis panel (DiscoverX). In kind it is binding. The settings on record: read-out: adjusted percentage (% control). The method, then: as §2, §3

The next experiment concerns the target T12, GCN2(Kin.Dom.2, S808G) (Homo sapiens, UniProt Q9P2K8, S808G).
T12 construct: GCN2(Kin.Dom.2,S808G); purchased DiscoverX ScanMAX Kinase analysis panel
In words: ScanMAX Kinase analysis panel (DiscoverX). In kind it is binding. The settings on record: read-out: adjusted percentage (% control). The method, then: as §2, §3

Experiment [3] concerns the target T13, ABL1(H396P)-nonphosphorylated (Homo sapiens, UniProt P00519, H396P).
T13 construct: purchased DiscoverX
In words: ScanMAX Kinase analysis panel (DiscoverX). In kind it is binding. The following applies: read-out: adjusted percentage (% control). As to the method:
as §2, §3

A further experiment addresses T14, EPHB6 (Homo sapiens, UniProt O15197).
T14 construct: purchased DiscoverX ScanMAX Kinase analysis panel
As to the kind of experiment: ScanMAX Kinase analysis panel (DiscoverX). In kind it is binding. The settings on record: read-out: adjusted percentage (% control). As to the method:
as §2, §3

In a further experiment the target is T15, FGR (Homo sapiens, UniProt P09769).
T15 construct: purchased DiscoverX ScanMAX Kinase analysis panel
In words: ScanMAX Kinase analysis panel (DiscoverX). In kind it is binding. The following applies: read-out: adjusted percentage (% control). The method, then: as §2, §3

The target in another experiment is T16, MAP3K2 (Homo sapiens, UniProt Q9Y2U5).
T16 construct: purchased DiscoverX ScanMAX Kinase analysis panel
T16 sequence (Q9Y2U5 whole entry): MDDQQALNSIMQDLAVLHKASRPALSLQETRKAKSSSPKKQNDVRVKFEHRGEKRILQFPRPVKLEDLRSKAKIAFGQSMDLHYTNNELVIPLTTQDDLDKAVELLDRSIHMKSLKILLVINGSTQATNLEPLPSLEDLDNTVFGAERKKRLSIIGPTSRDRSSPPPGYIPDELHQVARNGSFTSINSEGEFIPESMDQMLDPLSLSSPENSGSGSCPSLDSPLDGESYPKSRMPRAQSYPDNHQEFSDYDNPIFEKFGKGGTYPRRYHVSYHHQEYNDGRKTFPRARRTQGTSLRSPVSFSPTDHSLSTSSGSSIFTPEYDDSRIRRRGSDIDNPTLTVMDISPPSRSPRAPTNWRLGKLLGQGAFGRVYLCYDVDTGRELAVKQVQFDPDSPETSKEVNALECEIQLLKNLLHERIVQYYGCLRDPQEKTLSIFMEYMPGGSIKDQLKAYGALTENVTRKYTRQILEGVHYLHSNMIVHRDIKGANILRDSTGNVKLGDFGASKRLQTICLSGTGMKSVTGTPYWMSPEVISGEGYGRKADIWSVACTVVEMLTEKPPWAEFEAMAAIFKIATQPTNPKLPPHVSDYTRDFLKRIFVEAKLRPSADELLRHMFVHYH
As to the kind of experiment: ScanMAX Kinase analysis panel (DiscoverX). It counts as binding. The following applies: read-out: adjusted percentage (% control). As to the method:
as §2, §3

A further experiment has as its target T17, AURKA (Homo sapiens, UniProt O14965).
T17 construct: purchased DiscoverX
As to the kind of experiment: ScanMAX Kinase analysis panel (DiscoverX). It counts as binding. The settings on record: read-out: adjusted percentage (% control). As to the method: as §2, §3

The next experiment concerns the target T18, EGFR(L858R, T790M) (Homo sapiens, UniProt P00533, L858R/T790M).
T18 construct: purchased DiscoverX
As to the kind of experiment: ScanMAX Kinase analysis panel (DiscoverX). In kind it is binding. The settings on record: read-out: adjusted percentage (% control). As to the method: as §2, §3

The structures appear in SMILES notation.

T8 sequence (P68400 whole entry): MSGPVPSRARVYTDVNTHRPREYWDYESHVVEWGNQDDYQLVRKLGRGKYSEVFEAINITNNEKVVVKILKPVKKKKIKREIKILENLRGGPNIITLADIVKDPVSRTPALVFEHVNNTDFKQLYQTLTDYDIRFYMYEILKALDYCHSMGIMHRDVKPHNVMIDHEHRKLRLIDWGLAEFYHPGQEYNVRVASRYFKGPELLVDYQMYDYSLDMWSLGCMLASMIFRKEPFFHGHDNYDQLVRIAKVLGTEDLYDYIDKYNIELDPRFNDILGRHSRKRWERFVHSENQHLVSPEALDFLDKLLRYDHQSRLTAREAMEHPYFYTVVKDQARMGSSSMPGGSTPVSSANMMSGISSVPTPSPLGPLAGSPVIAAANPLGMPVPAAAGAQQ
T18 sequence (P00533 25-1210 T790M/L858R): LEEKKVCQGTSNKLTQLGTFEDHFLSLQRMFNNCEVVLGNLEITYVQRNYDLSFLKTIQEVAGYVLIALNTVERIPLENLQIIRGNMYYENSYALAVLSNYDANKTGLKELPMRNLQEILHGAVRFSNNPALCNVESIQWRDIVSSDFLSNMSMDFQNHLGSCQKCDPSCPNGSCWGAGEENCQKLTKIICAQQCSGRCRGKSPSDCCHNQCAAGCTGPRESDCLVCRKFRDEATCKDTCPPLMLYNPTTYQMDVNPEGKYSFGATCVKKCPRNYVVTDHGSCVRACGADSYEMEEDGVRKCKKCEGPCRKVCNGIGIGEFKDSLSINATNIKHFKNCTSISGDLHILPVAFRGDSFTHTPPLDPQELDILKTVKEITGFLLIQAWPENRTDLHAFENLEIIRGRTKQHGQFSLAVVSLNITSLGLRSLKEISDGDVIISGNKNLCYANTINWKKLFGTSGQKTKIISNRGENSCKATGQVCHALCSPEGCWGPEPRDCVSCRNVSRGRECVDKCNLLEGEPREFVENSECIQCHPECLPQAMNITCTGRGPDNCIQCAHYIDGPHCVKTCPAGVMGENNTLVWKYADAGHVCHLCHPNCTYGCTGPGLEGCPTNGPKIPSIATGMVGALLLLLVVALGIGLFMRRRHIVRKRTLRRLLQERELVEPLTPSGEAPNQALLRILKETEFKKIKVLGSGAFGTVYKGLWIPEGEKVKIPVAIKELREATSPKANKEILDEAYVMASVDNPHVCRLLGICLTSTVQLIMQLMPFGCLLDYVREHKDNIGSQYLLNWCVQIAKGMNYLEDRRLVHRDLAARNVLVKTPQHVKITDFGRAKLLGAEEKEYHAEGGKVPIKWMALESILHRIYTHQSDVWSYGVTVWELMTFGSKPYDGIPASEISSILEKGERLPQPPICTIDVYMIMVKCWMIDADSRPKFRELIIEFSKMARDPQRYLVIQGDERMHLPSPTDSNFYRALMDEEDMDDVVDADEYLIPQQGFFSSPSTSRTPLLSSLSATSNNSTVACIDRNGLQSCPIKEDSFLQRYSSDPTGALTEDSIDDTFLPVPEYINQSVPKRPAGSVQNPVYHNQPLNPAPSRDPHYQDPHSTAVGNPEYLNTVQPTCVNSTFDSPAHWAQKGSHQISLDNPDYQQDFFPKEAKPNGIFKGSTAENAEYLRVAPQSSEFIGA
T12 sequence (Q9P2K8 590-1001 S808G limits assumed): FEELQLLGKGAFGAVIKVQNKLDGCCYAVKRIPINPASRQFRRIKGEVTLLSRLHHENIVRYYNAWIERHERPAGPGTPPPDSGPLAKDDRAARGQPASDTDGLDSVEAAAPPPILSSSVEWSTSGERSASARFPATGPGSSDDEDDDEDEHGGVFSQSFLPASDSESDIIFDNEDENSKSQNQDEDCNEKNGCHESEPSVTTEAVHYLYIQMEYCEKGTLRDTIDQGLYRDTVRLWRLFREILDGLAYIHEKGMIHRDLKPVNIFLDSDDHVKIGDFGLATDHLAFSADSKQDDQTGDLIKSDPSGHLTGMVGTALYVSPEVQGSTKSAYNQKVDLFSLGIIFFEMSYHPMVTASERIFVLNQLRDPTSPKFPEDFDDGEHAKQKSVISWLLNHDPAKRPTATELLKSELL
Chain of RET (V804M) (P07949 658-1114 V804M limits assumed): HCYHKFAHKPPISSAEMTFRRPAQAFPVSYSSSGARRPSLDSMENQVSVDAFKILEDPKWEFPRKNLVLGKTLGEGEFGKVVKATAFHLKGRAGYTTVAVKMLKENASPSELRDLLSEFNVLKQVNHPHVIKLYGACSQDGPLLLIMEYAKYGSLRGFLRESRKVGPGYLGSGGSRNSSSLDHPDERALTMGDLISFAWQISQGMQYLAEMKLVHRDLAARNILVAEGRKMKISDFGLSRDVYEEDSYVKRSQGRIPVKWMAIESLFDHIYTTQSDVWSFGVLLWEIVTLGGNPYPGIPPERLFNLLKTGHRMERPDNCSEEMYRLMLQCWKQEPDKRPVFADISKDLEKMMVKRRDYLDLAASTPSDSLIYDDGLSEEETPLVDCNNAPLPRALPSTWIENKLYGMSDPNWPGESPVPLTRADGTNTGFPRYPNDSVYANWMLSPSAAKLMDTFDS

Regarding `COc1ccc(CN2C3CC2CN(c2ccc(-c4nc(Nc5cc(C)[nH]n5)c5occc5n4)cn2)C3)cn1` [Example 1, 2-(6-(6-((6-methoxypyridin-3-yl)methyl)-3,6-diazabicyclo[3.1.1]heptan-3-yl)pyridin-3-yl)-N-(5-methyl-1H-pyrazol-3-yl)furo[3,2-d]pyrimidin-4-amine], the half-inhibitory concentration (IC50) worked out at 2.2 nM against RET (V804M), 1.8 nM against CCDC6-RET and 18 nM against RET (WT). Also, the remaining binding at 1 µM on EGFR(T790M) was found to be 8.1%; at KIT(D816V) it was 32%; on SRC, 0.7%; in experiment [1], 16%; on ICK it was 33%; on CSNK2A1, 2.4%. In addition, the remaining binding at 1 µM on SYK worked out at 3.1%; at RET it was 0%; in experiment [2], 15%; on GCN2(Kin.Dom.2, S808G), 8%; in [3], 10%; on EPHB6 it was 2.6%. The remaining binding at 1 µM at FGR was 12%; at MAP3K2, 27%; on AURKA, 4.1%; on EGFR(L858R, T790M), 6.9%. For the same molecule, the “adjusted percentage (% control)” value in the experiment on FLT3(ITD, F691L) came to 1.4%.

As for `COc1ccc(CN2C3CC2CN(c2ccc(-c4nc(Nc5cc(C)[nH]n5)c5ccccc5n4)cn2)C3)cn1` [Example 3, 2-(6-(6-((6-methoxypyridin-3-yl)methyl)-3,6-diazabicyclo [3.1.1]heptan-3-yl)pyridin-3-yl)-N-(5-methyl-1H-pyrazol-3-yl)quinazolin-4-amine], the IC50 at RET (V804M) is 0.7 nM; against CCDC6-RET, 0.9 nM; at RET (WT), 7 nM. For the same molecule, the remaining binding at 1 µM turned out to be 16% on EGFR(T790M); 6.5% on KIT(D816V); 0% on SRC; 17% in experiment [1]; 28% at ICK; 1.5% on CSNK2A1. Moreover, the remaining binding at 1 µM on SYK was 2.2%; on RET it was 0%; in [2], 17%; at GCN2(Kin.Dom.2, S808G), 0.2%; in experiment [3] it was 2.5%; at EPHB6 it was 4.8%. Further, the remaining binding at 1 µM was 8.4% on FGR; 7.4% at MAP3K2; 2.2% at AURKA; 6.6% on EGFR(L858R, T790M). In addition, the “adjusted percentage (% control)” value in the experiment with FLT3(ITD, F691L) is 8.8%.
